{"source": "paper PMC4077696", "about": "(PLoS Biology, 2014)", "key": {"PvPMV": {"target": "PvPMV (Plasmodium vivax, UniProt A5K302)", "sequence (A5K302 35-536)": "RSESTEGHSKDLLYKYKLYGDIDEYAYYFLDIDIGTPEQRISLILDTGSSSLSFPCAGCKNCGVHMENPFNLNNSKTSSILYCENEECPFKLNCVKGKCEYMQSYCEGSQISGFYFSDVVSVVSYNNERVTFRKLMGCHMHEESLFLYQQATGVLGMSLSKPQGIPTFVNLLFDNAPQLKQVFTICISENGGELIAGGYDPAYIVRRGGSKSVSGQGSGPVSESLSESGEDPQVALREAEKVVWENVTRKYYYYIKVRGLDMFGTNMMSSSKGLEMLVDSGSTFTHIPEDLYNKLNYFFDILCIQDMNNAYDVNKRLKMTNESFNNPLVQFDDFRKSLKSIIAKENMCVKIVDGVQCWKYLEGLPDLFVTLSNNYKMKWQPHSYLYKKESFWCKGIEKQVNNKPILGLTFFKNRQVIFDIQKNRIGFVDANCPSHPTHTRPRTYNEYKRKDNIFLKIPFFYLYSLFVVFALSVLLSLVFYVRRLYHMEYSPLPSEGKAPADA", "test": "PEXEL cleavage assay with immunopurified PvPMVHA and fluorogenic KAHRP PEXEL peptide", "type": "biochemical", "method": "To investigate PvPMVHA activity, we affinity purified it, as well as the PfPMVHA control, using anti-HA agarose, as previously described [13],[18].\nPMV-agarose was prepared by adding α-HA-agarose (Sapphire Bioscience) to parasite lysates, prepared by sonication in 1% Triton X-100/PBS, for 1 h before extensive washing in same [12],[13]. […] Samples were excited at 340 nm and fluorescence emission measured at 492 nm using an Envision fluorescence plate reader (Perkin-Elmer) heated to 37°C for 150 min. Samples were shaken between measurements."}, "[1]": {"target": "T1, PMV in P. falciparum expressing PMVHA-glmS (Plasmodium falciparum, UniProt Q8I6Z5)", "T1 construct": "incorporated in frame at the 3′ of the PMV locus by homologous recombination; expressed in transfected cells; host or cells: P. falciparum NF54 with pPMVHA-glmS integrated at the PMV locus, also transfected with PfEMP3-GFP", "T1 sequence (Q8I6Z5 whole entry)": "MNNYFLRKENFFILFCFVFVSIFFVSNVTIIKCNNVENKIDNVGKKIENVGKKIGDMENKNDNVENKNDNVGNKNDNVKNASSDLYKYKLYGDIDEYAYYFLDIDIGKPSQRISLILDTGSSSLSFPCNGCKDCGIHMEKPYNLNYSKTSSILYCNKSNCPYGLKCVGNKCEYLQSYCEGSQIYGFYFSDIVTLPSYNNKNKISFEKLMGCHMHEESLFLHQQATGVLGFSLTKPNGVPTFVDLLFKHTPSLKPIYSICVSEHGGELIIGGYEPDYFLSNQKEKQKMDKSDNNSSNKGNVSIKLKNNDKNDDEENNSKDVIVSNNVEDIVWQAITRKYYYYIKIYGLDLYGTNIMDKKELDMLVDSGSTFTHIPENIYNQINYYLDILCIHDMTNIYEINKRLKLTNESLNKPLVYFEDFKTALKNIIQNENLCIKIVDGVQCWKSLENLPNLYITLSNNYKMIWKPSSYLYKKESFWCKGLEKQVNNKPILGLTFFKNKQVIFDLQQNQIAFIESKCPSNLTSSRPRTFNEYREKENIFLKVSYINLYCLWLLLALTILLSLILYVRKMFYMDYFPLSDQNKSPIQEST", "test": "PEXEL processing of PfEMP3-GFP in PMVHA-glmS parasites with PMV knockdown, immunoblot", "type": "cell-based", "conditions": "20 µM 916, 5 h", "experimental": "As 916 inhibited PMV in parasites (for example, by 13-fold, Figure 3G), the additive effect of PMV knockdown plus 916 treatment was investigated. Parasites expressing PMVHA-glmS were transfected with a construct encoding PfEMP3-GFP, and PEXEL processing was assessed by immunoblot.\nTrophozoites (30–34 h) expressing PfEMP3-GFP, KAHRP-GFP, or SERA5s-GFP were magnet-purified (Miltenyi Biotech), incubated with inhibitors in 400 µl total volume at 37°C for 1–5 h, treated with 0.09% saponin containing inhibitor, and washed pellets were solubilized in Laemmli's buffer, boiled for 3 min, and frozen at −20°C. Proteins were separated by SDS-PAGE, transferred to nitrocellulose and blocked in 10% skim milk/PBS-T, and probed with rat α-HA (Roche 3F10; 1∶1,000), mouse α-GFP (Roche; 1∶1,000), rabbit α-Aldolase (1∶1,000), rabbit α-HSP70 (1∶4,000), rabbit α-PfPMV (1∶1,000), or rabbit α-Hyp8 (1∶500) primary antibodies followed by horseradish peroxidase-conjugated secondary antibodies (Silenius) and detected by enhanced chemiluminescence (Amersham)."}}, "note": "Structures can show the parent of a compound that is named as a salt.", "data": [{"compound": "CC[C@H](C)[C@H](NC(=O)[C@@H](NC(=O)[C@H](CCCNC(=N)N)NS(=O)(=O)Cc1ccccc1)C(C)C)[C@@H](O)CC(=O)NCCc1ccccc1", "note": "[compound 025, PhCH2SO2Arg-Val-AHMHpA-NH(CH2)2Ph . TFA]", "values": [{"measurement": "Activity against PvPMVHA, in words", "setting": "PvPMV", "result": "weak activity"}, {"measurement": "IC50", "setting": "PvPMV", "result": 1.77, "unit": "µM"}]}, {"compound": "CC(C)C[C@H](NC(=O)[C@@H](NC(=O)[C@H](CCCNC(=N)N)NS(=O)(=O)Cc1ccccc1)C(C)C)[C@@H](O)CC(=O)NCCc1ccccc1", "note": "[compound 916, PhCH2SO2-Arg(NH2)-Val-Sta-NH(CH2)2Ph .TFA]", "values": [{"measurement": "Enhancement of PEXEL cleavage impairment following PMV knockdown", "setting": "[1]", "result": 50, "unit": "%"}]}]}
